Source: PMC8776995 (Frontiers in Chemistry, 2022)
“And” between values parts separate entries of the source, which are not always exact repeats. Equal values may be shown once.

Tests used:
PC-9 cells = assay: CCK-8 antiproliferation assay, PC-9; details: for Inhibitory efficacy: single repeats (Repeat 1-3), given as fraction
Description: The compounds were dissolved in DMSO to make a 20 μM stock solution and diluted to the concentration of working solutions with complete growth medium before administration.
Cells were seeded in 96-well plates: 3,000–5,000 cells/well in 100 ul. One day after seeding, the test compounds at concentration between 1.0 and 16.0 μ M or 0.1% DMSO (as control) were added to cells in triplicate. 48 h later, CCK-8 was added and incubated the plate for 1–4 h in the incubator. The absorbance at 450 nm were measured using a microplate reader (Bio-Tek).

H1975 cells = assay: CCK-8 antiproliferation assay, H1975; details: for Inhibitory efficacy: H1975 cells
A549 cells = assay: CCK-8 antiproliferation assay, A549; details: for Inhibitory efficacy: A549 cells
H460 cells = assay: CCK-8 antiproliferation assay, H460; details: for Inhibitory efficacy: H460 cells
wild-type EGFR = wild-type EGFR (Homo sapiens, UniProt P00533); assay: EGFR kinase assay (ELISA); details: for A450: raw ELISA absorbance
[1] = 1uM, given as fraction, Repeat 1-3
[2] = 2uM, given as fraction, Repeat 1-3
[3] = 4uM, given as fraction, Repeat 1-3
[4] = 8uM, given as fraction, Repeat 1-3
[5] = 16uM, given as fraction, Repeat 1-3

Sequence of wild-type EGFR (P00533 25-1210): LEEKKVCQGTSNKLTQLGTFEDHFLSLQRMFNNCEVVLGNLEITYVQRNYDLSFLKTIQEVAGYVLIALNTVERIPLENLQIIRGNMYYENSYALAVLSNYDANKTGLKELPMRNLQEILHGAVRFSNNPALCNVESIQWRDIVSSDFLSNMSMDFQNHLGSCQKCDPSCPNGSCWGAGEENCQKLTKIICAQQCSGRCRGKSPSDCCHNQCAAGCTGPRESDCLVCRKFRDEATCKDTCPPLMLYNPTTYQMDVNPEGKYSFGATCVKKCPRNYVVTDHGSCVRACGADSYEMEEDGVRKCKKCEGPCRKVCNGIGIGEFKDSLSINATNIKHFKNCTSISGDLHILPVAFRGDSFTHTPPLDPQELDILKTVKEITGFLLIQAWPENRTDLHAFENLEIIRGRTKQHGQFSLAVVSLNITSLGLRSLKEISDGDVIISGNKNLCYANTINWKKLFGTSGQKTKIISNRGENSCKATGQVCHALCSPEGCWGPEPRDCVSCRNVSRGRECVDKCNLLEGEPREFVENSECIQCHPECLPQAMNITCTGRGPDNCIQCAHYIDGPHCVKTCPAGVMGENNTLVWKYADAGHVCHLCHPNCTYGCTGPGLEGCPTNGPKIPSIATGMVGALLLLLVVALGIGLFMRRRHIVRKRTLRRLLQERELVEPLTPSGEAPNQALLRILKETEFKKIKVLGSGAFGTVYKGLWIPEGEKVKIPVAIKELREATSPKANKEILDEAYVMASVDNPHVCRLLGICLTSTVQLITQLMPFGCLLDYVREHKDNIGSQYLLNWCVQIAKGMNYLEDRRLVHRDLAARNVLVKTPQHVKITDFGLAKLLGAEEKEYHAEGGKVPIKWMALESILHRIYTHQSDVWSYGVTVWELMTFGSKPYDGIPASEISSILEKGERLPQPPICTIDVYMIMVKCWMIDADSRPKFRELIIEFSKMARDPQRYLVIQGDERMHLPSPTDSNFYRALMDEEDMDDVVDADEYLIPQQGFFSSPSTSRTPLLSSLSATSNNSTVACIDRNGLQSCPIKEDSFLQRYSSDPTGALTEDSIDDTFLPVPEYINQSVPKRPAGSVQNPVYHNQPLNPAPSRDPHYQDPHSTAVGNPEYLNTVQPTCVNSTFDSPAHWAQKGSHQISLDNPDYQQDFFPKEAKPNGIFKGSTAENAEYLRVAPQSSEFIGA

For `COCCOc1cc2ncnc(Nc3cccc(-c4cn(-c5ccc(Br)cc5)nn4)c3)c2cc1OCCOC` [e10, [6,7-Bis-(2-methoxy-ethoxy)-quinazolin-4-yl]-{3-[1-(4-bromo-phenyl)-1H-[1,2,3]triazol-4-yl]-phenyl}-amine], the IC50 (PC-9 cells; Homo sapiens, PC-9, 48 h, read-out: IC50 (μM) PC-9) was > 100 µM, the inhibition at 4 µM (PC-9 cells; Homo sapiens, PC-9, read-out: Inhibitory efficacy, PC-9, 4uM, single repeats (Repeat 1-3), given as fraction) was 11.7% and the inhibition at 16 µM (PC-9 cells; Homo sapiens, PC-9, read-out: Inhibitory efficacy, PC-9, 16uM, single repeats (Repeat 1-3), given as fraction) was 13.3%. For the same molecule, the Inhibitory efficacy (PC-9 cells; PC-9, 4uM, 4 µM) was 0.1333 and 0.0912, the Inhibitory efficacy (PC-9 cells; PC-9, 16uM, 16 µM) was 0.1218 and 0.1916 and the Inhibitory efficacy (H1975 cells; [1]) was 0.3092 and 0.3364. For the same molecule, the Inhibitory efficacy (H1975 cells; [2]) was 0.3838 and 0.3364, the Inhibitory efficacy (H1975 cells; [3]) was 0.4598 and 0.4892 and the Inhibitory efficacy (H1975 cells; [4]) was 0.5696 and 0.4885. For the same molecule, the Inhibitory efficacy (H1975 cells; [5]) was 0.5545 and 0.4835, the IC50 (H1975 cells; Homo sapiens, NCI-H1975, 48 h, read-out: IC50 (μM) H1975, CCK-8, 48 h, average ± SD of three independent experiments) was 6.36 ± 4.21 µM and the inhibition at 1 µM (H1975 cells; Homo sapiens, NCI-H1975, read-out: Inhibitory efficacy, H1975 cells, 1uM, given as fraction, Repeat 1-3) was 39.4%. It also gave an inhibition at 2 µM (H1975 cells; Homo sapiens, NCI-H1975, read-out: Inhibitory efficacy, H1975 cells, 2uM, given as fraction, Repeat 1-3) of 33.8%, an inhibition at 4 µM (H1975 cells; Homo sapiens, NCI-H1975, read-out: Inhibitory efficacy, H1975 cells, 4uM, given as fraction, Repeat 1-3) of 51.4% and an inhibition at 8 µM (H1975 cells; Homo sapiens, NCI-H1975, read-out: Inhibitory efficacy, H1975 cells, 8uM, given as fraction, Repeat 1-3) of 54.1%. For the same molecule, the inhibition at 16 µM (H1975 cells; Homo sapiens, NCI-H1975, read-out: Inhibitory efficacy, H1975 cells, 16uM, given as fraction, Repeat 1-3) was 67.4%, the Inhibitory efficacy (A549 cells; [1]) was 0.3506 and 0.4374 and the Inhibitory efficacy (A549 cells; [2]) was 0.4836 and 0.5124. The Inhibitory efficacy (A549 cells; [3]) was 0.5136 and 0.5055, the Inhibitory efficacy (A549 cells; [4]) was 0.5695 and 0.5326 and the Inhibitory efficacy (A549 cells; [5]) was 0.5501 and 0.5711. The IC50 (A549 cells; Homo sapiens, A549, 48 h, read-out: IC50 (μM) A549, CCK-8, 48 h, average ± SD of three independent experiments) was 3.77 ± 0.68 µM, the inhibition at 1 µM (A549 cells; Homo sapiens, A549, read-out: Inhibitory efficacy, A549 cells, 1uM, given as fraction, Repeat 1-3) was 35.9% and the inhibition at 2 µM (A549 cells; Homo sapiens, A549, read-out: Inhibitory efficacy, A549 cells, 2uM, given as fraction, Repeat 1-3) was 51.4%. It also gave an inhibition at 4 µM (A549 cells; Homo sapiens, A549, read-out: Inhibitory efficacy, A549 cells, 4uM, given as fraction, Repeat 1-3) of 50.2%, an inhibition at 8 µM (A549 cells; Homo sapiens, A549, read-out: Inhibitory efficacy, A549 cells, 8uM, given as fraction, Repeat 1-3) of 55.8% and an inhibition at 16 µM (A549 cells; Homo sapiens, A549, read-out: Inhibitory efficacy, A549 cells, 16uM, given as fraction, Repeat 1-3) of 59%. For the same molecule, the melting point was 105 to 108 °C, the Inhibitory efficacy (H460 cells; [2]) was 0.07707 and 0.09653 and the Inhibitory efficacy (H460 cells; [4]) was 0.3228 and 0.2533. The Inhibitory efficacy (H460 cells; [5]) was 0.4853 and 0.4952, the IC50 (H460 cells; Homo sapiens, NCI-H460, 48 h, read-out: IC50 (μM) H460, CCK-8, 48 h, average ± SD of three independent experiments) was 15 ± 2.1 µM and the inhibition at 2 µM (H460 cells; Homo sapiens, NCI-H460, read-out: Inhibitory efficacy, H460 cells, 2uM, given as fraction, Repeat 1-3) was 6.52%. The inhibition at 8 µM (H460 cells; Homo sapiens, NCI-H460, read-out: Inhibitory efficacy, H460 cells, 8uM, given as fraction, Repeat 1-3) was 25.3%, the inhibition at 16 µM (H460 cells; Homo sapiens, NCI-H460, read-out: Inhibitory efficacy, H460 cells, 16uM, given as fraction, Repeat 1-3) was 60.6% and the IC50 (wild-type EGFR; IC50 (μM) EGFR, ELISA, 3 μmol/L ATP) was 2.13 µM. The inhibition at 30 pM (wild-type EGFR; concentration 0.03 nM, one value per replicate column) was 4.76%, the Inhibition (wild-type EGFR; concentration 0.03 nM, one value per replicate column, 3e-05 µM) was 5.109 and the inhibition at 0.0003 µM (wild-type EGFR; concentration 0.3 nM, one value per replicate column) was 11.4%. It also gave an Inhibition (wild-type EGFR; concentration 0.3 nM, one value per replicate column, 0.0003 µM) of 10.9489, an inhibition at 0.003 µM (wild-type EGFR; concentration 3 nM, one value per replicate column) of 15.7% and an Inhibition (wild-type EGFR; concentration 3 nM, one value per replicate column, 0.003 µM) of 10.9489. It also gave an inhibition at 0.03 µM (wild-type EGFR; concentration 30 nM, one value per replicate column) of 21.1%, an Inhibition (wild-type EGFR; concentration 30 nM, one value per replicate column, 0.03 µM) of 11.3139 and an inhibition at 0.3 µM (wild-type EGFR; concentration 300 nM, one value per replicate column) of 36.5%. For the same molecule, the Inhibition (wild-type EGFR; concentration 300 nM, one value per replicate column, 0.3 µM) was 39.9635, the inhibition at 3 µM (wild-type EGFR; concentration 3000 nM, one value per replicate column) was 38.4% and the Inhibition (wild-type EGFR; concentration 3000 nM, one value per replicate column, 3 µM) was 48.1752. For the same molecule, the inhibition at 30 µM (wild-type EGFR; concentration 30000 nM, one value per replicate column) was 78.1%, the Inhibition (wild-type EGFR; concentration 30000 nM, one value per replicate column, 30 µM) was 77.5547 and the A450 (wild-type EGFR; concentration 0.0001 nM) was 0.787 and 0.697. For the same molecule, the A450 (wild-type EGFR; concentration 0.03 nM) was 0.757 and 0.669, the A450 (wild-type EGFR; concentration 0.3 nM) was 0.715 and 0.637 and the A450 (wild-type EGFR; concentration 3 nM) was 0.688 and 0.637. For the same molecule, the A450 (wild-type EGFR; concentration 30 nM) was 0.654 and 0.635, the A450 (wild-type EGFR; concentration 300 nM) was 0.557 and 0.478 and the A450 (wild-type EGFR; concentration 3000 nM) was 0.545 and 0.433. For the same molecule, the A450 (wild-type EGFR; concentration 30000 nM) was 0.295 and 0.272.
